Molecular target: T1, His-p53 Y220C (94-294) protein (Homo sapiens, UniProt P04637, Y220C)
T1 construct: His-p53 Y220C (94-294) protein
Assay: In vitro DNA binding assay (HTRF)
Assay type: biochemical
Conditions: % activation normalized to 2 μM Ref-1a high control

SMILES | EC50 [nM]
CCc1c(C#CCNc2ccc(S(N)(=O)=O)cc2)sc2c(NC3CCN(C)CC3)cccc12 [Example 1, 4-((3-(3-ethyl-7-((1-methylpiperidin-4-yl)amino)benzo[b]thiophen-2-yl)prop-2-yn-1-yl)amino)benzenesulfonamide] | 345
COc1cc(S(C)(=O)=O)ccc1NCC#Cc1sc2c(N(C)C3CCN(C)CC3F)cccc2c1CC(F)(F)F (centres unmarked) [Example 42, (Z)-3-fluoro-N-(2-(3-((2-methoxy-4-(methylsulfonyl)phenyl)amino)prop-1-yn-1-yl)-3-(2,2,2-trifluoroethyl)benzo[b]thiophen-7-yl)-N,1-dimethylpiperidin-4-amine] | 654
CN1CCC(Nc2cccc3c(CC(F)(F)F)c(C#CCNc4ccc(S(C)(=O)=O)cc4OCC(F)F)sc23)CC1 [Example 12, N-(2-(3-((2-(2,2-difluoroethoxy)-4-(methylsulfonyl)phenyl)amino)prop-1-yn-1-yl)-3-(2,2,2-trifluoroethyl)benzo[b]thiophen-7-yl)-1-methylpiperidin-4-amine] | 141
CCN1CC[C@@H](Nc2cccc3c(CC(F)(F)F)c(C#CCNc4ccc(P(C)(C)=O)cc4OC)sc23)[C@@H](F)C1 (racemic) [Example 100, (4-((3-(7-(((Z)-1-ethyl-3-fluoropiperidin-4-yl)amino)-3-(2,2,2-trifluoroethyl)benzo[b]thiophen-2-yl)prop-2-yn-1-yl)amino)-3-methoxyphenyl)dimethylphosphine oxide] | 40
COc1cc(S(C)(=O)=O)ccc1NCC#Cc1sc2c(NC3CCNCC3)cccc2c1CC(F)(F)F [Example 38, N-(2-(3-((2-methoxy-4-(methylsulfonyl)phenyl)amino)prop-1-yn-1-yl)-3-(2,2,2-trifluoroethyl)benzo[b]thiophen-7-yl)piperidin-4-amine] | 194
CN1CCC(Nc2cccc3c(CC(F)(F)F)c(C#CCNc4ccc(S(C)(=O)=O)cc4OCC(F)(F)F)sc23)CC1 [Example 13, 1-methyl-N-(2-(3-((4-(methylsulfonyl)-2-(2,2,2-trifluoroethoxy)phenyl)amino)prop-1-yn-1-yl)-3-(2,2,2-trifluoroethyl)benzo[b]thiophen-7-yl)piperidin-4-amine] | 170
COc1cc(S(=O)(=O)N2CCOCC2)ccc1NCC#Cc1sc2c(NC3CCN(C)CC3)cccc2c1CC(F)(F)F [Example 22, N-(2-(3-((2-methoxy-4-(morpholinosulfonyl)phenyl)amino)prop-1-yn-1-yl)-3-(2,2,2-trifluoroethyl)benzo[b]thiophen-7-yl)-1-methylpiperidin-4-amine] | 288
C[C@@H](C#Cc1sc2c(NC3CCN(C)CC3)cccc2c1CC(F)(F)F)Nc1ccc(S(N)(=O)=O)cc1 [Example 45, (S)-4-((4-(7-((1-methylpiperidin-4-yl)amino)-3-(2,2,2-trifluoroethyl)benzo[b]thiophen-2-yl)but-3-yn-2-yl)amino)benzenesulfonamide] | 2790
C[C@H](C#Cc1sc2c(NC3CCN(C)CC3)cccc2c1CC(F)(F)F)Nc1ccc(S(N)(=O)=O)cc1 [Example 44, (R)-4-((4-(7-((1-methylpiperidin-4-yl)amino)-3-(2,2,2-trifluoroethyl)benzo[b]thiophen-2-yl)but-3-yn-2-yl)amino)benzenesulfonamide] | 2910
COc1cc(P(C)(C)=O)ccc1NCC#Cc1sc2c(NC3CCN(C)CC3F)cccc2c1CC#N (centres unmarked) [Example 133, 2-(2-(3-((4-(dimethylphosphoryl)-2-methoxyphenyl)amino)prop-1-yn-1-yl)-7-(((E)-3-fluoro-1-methylpiperidin-4-yl)amino)benzo[b]thiophen-3-yl)acetonitrile] | 311
COc1cc(S(C)(=O)=O)ccc1NCC#Cc1sc2c(NC3C4CNCC3CNC4)cccc2c1CC(F)(F)F (centres unmarked) [Example 78, N-(2-(3-((2-methoxy-4-(methylsulfonyl)phenyl)amino)prop-1-yn-1-yl)-3-(2,2,2-trifluoroethyl)benzo[b]thiophen-7-yl)-3,7-diazabicyclo[3.3.1]nonan-9-amine] | 134

Continued, values first:

EC50 [nM] | SMILES
114 | CN1CCC(Nc2cccc3c(CC(F)(F)F)c(C#CCNc4ccc(P(C)(C)=O)cc4)sc23)CC1 [Example 9, dimethyl(4-((3-(7-((1-methylpiperidin-4-yl)amino)-3-(2,2,2-trifluoroethyl)benzo[b]thiophen-2-yl)prop-2-yn-1-yl)amino)phenyl)phosphine oxide]
211 | COc1nc(P(C)(C)=O)cnc1NCC#Cc1sc2c(N[C@@H]3CCN(C)C[C@@H]3F)cccc2c1CC(F)(F)F [Example 209, (5-((3-(7-(((3S,4R)-3-fluoro-1-methylpiperidin-4-yl)amino)-3-(2,2,2-trifluoroethyl)benzo[b]thiophen-2-yl)prop-2-yn-1-yl)amino)-6-methoxypyrazin-2-yl)dimethylphosphine oxide]
205 | COc1cc(P(C)(C)=O)cc(F)c1NCC#Cc1sc2c(N[C@@H]3CCN(C)C[C@@H]3F)cccc2c1CC(F)(F)F [Example 206, (3-fluoro-4-((3-(7-(((3S,4R)-3-fluoro-1-methylpiperidin-4-yl)amino)-3-(2,2,2-trifluoroethyl)benzo[b]thiophen-2-yl)prop-2-yn-1-yl)amino)-5-methoxyphenyl)dimethylphosphine oxide]
126 | COc1cc(P(C)(C)=O)cnc1NCC#Cc1sc2c(N[C@@H]3CCN(C)C[C@@H]3F)cccc2c1CC(F)(F)F [Example 207, (6-((3-(7-(((3S,4R)-3-fluoro-1-methylpiperidin-4-yl)amino)-3-(2,2,2-trifluoroethyl)benzo[b]thiophen-2-yl)prop-2-yn-1-yl)amino)-5-methoxypyridin-3-yl)dimethylphosphine oxide]
60 | COc1cc(NCC#Cc2sc3c(NC4CCN(C)CC4F)cccc3c2CC(F)(F)F)ccc1P(C)(C)=O (centres unmarked) [Example 151, (4-((3-(7-(((Z)-3-fluoro-1-methylpiperidin-4-yl)amino)-3-(2,2,2-trifluoroethyl)benzo[b]thiophen-2-yl)prop-2-yn-1-yl)amino)-2-methoxyphenyl)dimethylphosphine oxide]
147 | COc1cc(P(C)(C)=O)ccc1OCC#Cc1sc2c(N[C@@H]3CCN(C)C[C@@H]3F)cccc2c1CC(F)(F)F (racemic) [Example 123, (4-((3-(7-(((Z)-3-fluoro-1-methylpiperidin-4-yl)amino)-3-(2,2,2-trifluoroethyl)benzo[b]thiophen-2-yl)prop-2-yn-1-yl)oxy)-3-methoxyphenyl)dimethylphosphine oxide]
90 | COc1cc(C(=O)NO)ccc1NCC#Cc1sc2c(NC3CCN(C)CC3F)cccc2c1CC(F)(F)F (centres unmarked) [Example 58, 4-((3-(7-(((Z)-3-fluoro-1-methylpiperidin-4-yl)amino)-3-(2,2,2-trifluoroethyl)benzo[b]thiophen-2-yl)prop-2-yn-1-yl)amino)-N-hydroxy-3-methoxybenzamide]
134 | COc1nc(P(C)(C)=O)ccc1NCC#Cc1sc2c(N[C@@H]3CCN(C4CCOCC4)C[C@@H]3F)cccc2c1CC(F)(F)F [Example 179, (5-((3-(7-(((3S,4R)-3-fluoro-1-(tetrahydro-2H-pyran-4-yl)piperidin-4-yl)amino)-3-(2,2,2-trifluoroethyl)benzo[b]thiophen-2-yl)prop-2-yn-1-yl)amino)-6-methoxypyridin-2-yl)dimethylphosphine oxide]
129 | COc1cc(P(=O)(C2CC2)C2CC2)ccc1NCC#Cc1sc2c(N[C@H]3CCN(C)C[C@H]3F)cccc2c1CC(F)(F)F [Example 140, dicyclopropyl(4-((3-(7-(((3R,4S)-3-fluoro-1-methylpiperidin-4-yl)amino)-3-(2,2,2-trifluoroethyl)benzo[b]thiophen-2-yl)prop-2-yn-1-yl)amino)-3-methoxyphenyl)phosphine oxide]
60 | COc1cc(S(N)(=O)=O)ccc1NCC#Cc1sc2c(NC3CCN(C)CC3F)cccc2c1CC(F)(F)F (centres unmarked) [Example 40, 4-((3-(7-(((Z)-3-fluoro-1-methylpiperidin-4-yl)amino)-3-(2,2,2-trifluoroethyl)benzo[b]thiophen-2-yl)prop-2-yn-1-yl)amino)-3-methoxybenzenesulfonamide]
32 | CN1CC[C@H](Nc2cccc3c(CC(F)(F)F)c(C#CCNc4ccc(S(N)(=O)=O)cc4)sc23)[C@H](F)C1 (racemic) [Example 5, 4-((3-(7-(((3R,4S)-3-fluoro-1-methylpiperidin-4-yl)amino)-3-(2,2,2-trifluoroethyl)benzo[b]thiophen-2-yl)prop-2-yn-1-yl)amino)benzenesulfonamide]
390 | COc1cc(P(C)(C)=O)ccc1NCC#Cc1sc2c(NC3CCN(C)CC3(F)F)cccc2c1CC(F)(F)F (centres unmarked) [Example 43, (4-((3-(7-((3,3-difluoro-1-methylpiperidin-4-yl)amino)-3-(2,2,2-trifluoroethyl)benzo[b]thiophen-2-yl)prop-2-yn-1-yl)amino)-3-methoxyphenyl)dimethylphosphine oxide]
151 | COc1cc(P(C)(C)=O)ccc1NCC#Cc1sc2c(N[C@@H]3CCN(C4CCS(=O)(=O)CC4)C[C@@H]3F)cccc2c1CC(F)(F)F (relative stereo) [Example 93, (Z)—N-[2-[3-(4-dimethylphosphoryl-2-methoxy-anilino)prop-1-ynyl]-3-(2,2,2-trifluoroethyl)benzothiophen-7-yl]-1-(1,1-dioxothian-4-yl)-3-fluoro-piperidin-4-amine]
122 | COc1cc(S(C)(=O)=O)ccc1NCC#Cc1sc2c(NC3CCCN(C)CC3)cccc2c1CC(F)(F)F (centres unmarked) [Example 55, N-(2-(3-((2-methoxy-4-(methylsulfonyl)phenyl)amino)prop-1-yn-1-yl)-3-(2,2,2-trifluoroethyl)benzo[b]thiophen-7-yl)-1-methylazepan-4-amine]
112 | CNC(=O)c1ccc(NCC#Cc2sc3c(NC4CCN(C)CC4)cccc3c2CC(F)(F)F)c(OC)c1 [Example 8, 3-methoxy-N-methyl-4-((3-(7-((1-methylpiperidin-4-yl)amino)-3-(2,2,2-trifluoroethyl)benzo[b]thiophen-2-yl)prop-2-yn-1-yl)amino)benzamide]
